Measured values reported in the NIST ThermoML archive (doi:10.1016/j.fluid.2011.11.028).

Experiments:
[1] = cn = amount concentration of the nth substance listed, in mol/dm3; conditions: 298.15 K, 101 kPa, Liquid, Alternating current cell with electrodes
[2] = mn = molality of the nth substance listed, in mol/kg; conditions: 298.15 K, 101 kPa, Liquid; for viscosity: Capillary tube (Ostwald / Ubbelohde) method; for mass density: Vibrating tube method

CCCCCCCC[n+]1ccn(C)c1.[Cl-] [1-methyl-3-octylimidazolium chloride] + O
[1]
Conditions	molar conductivity [S·m2/mol]
c1 = 0.0003264	0.0101
c1 = 0.000434	0.0101
c1 = 0.0005416	0.01
c1 = 0.0006484	0.01
c1 = 0.0007536	0.01
c1 = 0.0008878	0.00997
c1 = 0.001103	0.00995
c1 = 0.001269	0.00993
c1 = 0.001538	0.0099
c1 = 0.001689	0.00989
c1 = 0.001863	0.00987

O=C[C@H](O)[C@@H](O)[C@H](O)[C@H](O)CO [D-glucose] + O
[2]
Conditions	mass density [kg/m3]	viscosity [mPa·s]
m1 = 0.2	1010.39	0.974
m1 = 0.4	1023.12	1.066
m1 = 0.6	1035.32	1.166
m1 = 0.8	1046.92	1.273
m1 = 1	1057.99	1.385
m1 = 1.2	1068.59	1.501

CCCCCCn1cc[n+](C)c1.[Cl-] [1-hexyl-3-methylimidazolium chloride] + O
[1]
Conditions	molar conductivity [S·m2/mol]
c1 = 0.0001239	0.0103
c1 = 0.0002407	0.0103
c1 = 0.0003449	0.0102
c1 = 0.0004557	0.0102
c1 = 0.0005824	0.0102
c1 = 0.0007219	0.0101
c1 = 0.0008733	0.0101
c1 = 0.0009879	0.0101
c1 = 0.001214	0.0101
c1 = 0.001417	0.01
c1 = 0.001669	0.01
c1 = 0.001927	0.00999

CCCCn1cc[n+](C)c1.[Cl-] [1-butyl-3-methylimidazolium chloride] + O
[1]
Conditions	molar conductivity [S·m2/mol]
c1 = 0.0004734	0.0107
c1 = 0.0006936	0.0106
c1 = 0.0008909	0.0106
c1 = 0.001113	0.0105
c1 = 0.001311	0.0105
c1 = 0.001497	0.0105
c1 = 0.00167	0.0105
c1 = 0.001839	0.0104
c1 = 0.001984	0.0104
c1 = 0.002099	0.0104

O=C[C@H](O)[C@@H](O)[C@H](O)CO [D-xylose] + O
[2]
Conditions	mass density [kg/m3]	viscosity [mPa·s]
m1 = 0.2	1007.79	0.953
m1 = 0.4	1018.1	1.022
m1 = 0.6	1028.02	1.096
m1 = 0.8	1037.53	1.175
m1 = 1	1046.69	1.258
m1 = 1.2	1055.41	1.344

CCCCCCCCCCn1cc[n+](C)c1.[Cl-] [1-decyl-3-methylimidazolium chloride] + O
[1]
Conditions	molar conductivity [S·m2/mol]
c1 = 0.0001226	0.00997
c1 = 0.0002378	0.00993
c1 = 0.0003622	0.0099
c1 = 0.0004428	0.00987
c1 = 0.0005678	0.00984
c1 = 0.000679	0.00981
c1 = 0.0007671	0.0098
c1 = 0.0008693	0.00978
c1 = 0.001044	0.00975
c1 = 0.001192	0.00974
c1 = 0.001374	0.00972
c1 = 0.00153	0.0097

O=C[C@H](O)[C@@H](O)[C@@H](O)[C@H](O)CO [(+)-galactose] + O
[2]
Conditions	mass density [kg/m3]	viscosity [mPa·s]
m1 = 0.2	1010.73	0.97
m1 = 0.4	1023.81	1.06
m1 = 0.6	1036.28	1.16
m1 = 0.8	1048.23	1.267
m1 = 1	1059.6	1.381
m1 = 1.2	1070.53	1.5

O=C[C@H](O)[C@H](O)[C@H](O)CO [D-ribose] + O
[2]
Conditions	mass density [kg/m3]	viscosity [mPa·s]
m1 = 0.2	1007.85	0.949
m1 = 0.4	1018.22	1.011
m1 = 0.6	1028.18	1.077
m1 = 0.8	1037.77	1.145
m1 = 1	1046.98	1.215
m1 = 1.2	1055.89	1.278
